Results published in EP2589390B1, “PHARMACEUTICAL COMPOSITION FOR TREATING CENTRAL AND PERIPHERAL NERVOUS SYSTEM DISEASES OF VASCULAR, TRAUMATIC, TOXIC, HYPOXIC AND […]” (Aktsionernoe Obschestvo "Pharm-Sintez", priority 2010, dated 2012).

Tested on: mice bone marrow polychromatophils
Details: positive control
[1] = 20 mg/kg intraperitoneally in male mice

Description: The Study purpose is to reveal and quantitatively assess the cytogenetic activity (mutagenicity) of the pharmacologic drugs in the mammalian bone marrow polychromatophils. The method's base is the micronuclei cells microscopic registration.
The experimental used the male and female F1(CBAx C57BI6/J) hybrid mice, two-month age, 18 to 20 grams body weight. Every group included 6 animals. The animals were kept under the 12-hour light regime, with freely available water and food. The single and five fold administration protein-polypeptide complex mutagenicity assessment animal experiments were in compliance with the official protocols. Three experimental series with relevant controls were performed: therapeutic dosage: males, single administration; subtoxic dose: males, single administration; and therapeutic dosage: males and females, five fold administration.
The protein-polypeptide complex mutagenicity assessment dose was defined on the basis of the maximum recommended daily therapeutic dose (TD) for human. The 2 ml at 0.1 mg/ml concentration IV administration is recommended. The therapeutic dose for human, including infant, may be 0.05 mg/kg/day. To calculate the mice experimental dose, the conversion factor is recommended to take into account the human and murine body surface area to body mass ratio. In our study it was 8.33.
For the subtoxic dose the maximum possible experimental one was used, 10 mg/kg, as the substance concentration was 0.1 mg/ml; the conventional total substance administered to mice is 0.1 ml per 10 g body weight.
Seven groups of animals, four experimental and three control ones, were formed. […]
The bone marrow cells preparation for the micronuclei account were made in conventional manner, in accordance with the "Micronuclear Test Environmental Factors Mutagenicity Assessment in Mammalia Organs Cells" Guidelines. […] 2000 polychromatophils per animal were then analyzed with coded preparations. At the 500 erythrocytes count the polychromatophil to normochromatic erythrocytes ratio was determined. […]

O=P1(N(CCCl)CCCl)NCCCO1 (stereo not drawn) [cyclophosphamide]
higher micronuclei cells vs. control [1]: 19.6 fold
micronuclei cells [1]: 62.1 ‰
polychromatophil to normochromatic erythrocytes ratio (20 mg/kg intraperitoneally, P < 0.005 vs control): shift to the latter ones
